Measured values taken from patent US20230416275A1, “MODULATORS OF CYSTIC FIBROSIS TRANSMEMBRANE CONDUCTANCE REGULATOR” (VERTEX PHARMACEUTICALS INCORPORATED, priority 2020, published 2023).

Molecular target: CFTR-mediated chloride transport in human intestinal epithelial enteroid cells (Homo sapiens, UniProt P13569)
Assay: Membrane potential dye, Enteroid Assay A
Format: cell-based
Conditions: for Ent. A Max Activity (%): % of chloride transport of triple combination control (3 μM N-[(6-amino-2-pyridyl)sulfonyl]-6-(3-fluoro-5-isobutoxy-phenyl)-2-[(4S)-2,2,4-trimethylpyrrolidin-1-yl]pyridine-3-carboxamide, 3 μM tezacaftor, 300 nM acute ivacaftor); for EC50: enteroid cells, 18-24 hours incubation, acute 10 μM forskolin and 300 nM ivacaftor, read-out: Ent. A EC50
Protocol: Base medium (ADF+++) consisted of Advanced DMEM/Ham's F12, 2 mM Glutamax, 10 mM HEPES, […] penicillin/streptomycin.
Intestinal enteroid maintenance medium (IEMM) consisted of ADF+++, 1×B27 supplement, 1×N2 supplement, 1.25 mM N-acetyl cysteine, 10 mM Nicotinamide, 50 ng/mL hEGF, 10 nM Gastrin, 1 μg/mL hR-spondin-1, 100 ng/mL hNoggin, TGF-b type 1 inhibitor A-83-01, 100 μg/mL Primocin, 10 μM P38 MAPK inhibitor SB202190.
Bath 1 Buffer consisted of 1 mM MgCl2, 160 mM NaCl, 4.5 mM KCl, 10 mM HEPES, 10 mM Glucose, 2 mM CaCl2.
Chloride Free Buffer consisted of 1 mM Magnesium Gluconate, 2 mM Calcium Gluconate, 4.5 mM Potassium Gluconate, 160 mM Sodium Gluconate, 10 mM HEPES, 10 mM Glucose.
Bath1 Dye Solution consisted of Bath 1 Buffer, 0.04% Pluronic F127, 20 μM Methyl Oxonol, 30 μM CaCCinh-A01, 30 μM Chicago Sky Blue.
Chloride Free Dye Solution consisted of Chloride Free Buffer, 0.04% Pluronic F127, 20 μM Methyl Oxonol, 30 μM CaCCinh-A01, 30 μM Chicago Sky Blue.
Chloride Free Dye Stimulation Solution consisted of Chloride Free Dye Solution, 10 μM forskolin, 100 μM IBMX, and 300 nM Compound III.
Human intestinal epithelial enteroid cells were obtained from the Hubrecht Institute for Developmental Biology and Stem Cell Research, Utrecht, The Netherlands and expanded in T-Flasks as previously described (Dekkers J F, Wiegerinck C L, de Jonge H R, Bronsveld I, Janssens H M, de Winter-de Groot K M, Brandsma A M, de Jong N W M, Bijvelds M J C, Scholte B J, Nieuwenhuis E E S, van den Brink S, Clevers H, van der Ent C K, Middendorp S and M Beekman J M. A functional CFTR assay using primary cystic fibrosis intestinal organoids. Nat Med. 2013 July; 19(7):939-45).
c. Enteroid Cell Harvesting and Seeding
Cells were recovered in cell recovery solution, collected by centrifugation at 650 rpm for 5 minutes at 4° C., resuspended in TrypLE and incubated for 5 minutes at 37° C. Cells were then collected by centrifugation at 650 rpm for 5 minutes at 4° C. and resuspended in IEMM containing 10 μM ROCK inhibitor (RI). The cell suspension was passed through a 40 μm cell strainer and resuspended at 1×10^6 cells/mL in IEMM containing 10 μM RI. Cells were seeded at 5000 cells/well into multi-well plates and incubated for overnight at 37° C., 95% humidity and 5% CO2 prior to assay.
d. Membrane Potential Dye, Enteroid Assay A
Enteroid cells were incubated with test compound in IEMM for 18-24 hours at 37° C., 95% humidity and 5% CO2. […] Briefly, cells were washed 5 times in Bath 1 Buffer. Bath 1 Dye Solution was added, and the cells were incubated for 25 minutes at room temperature. Following dye incubation, cells were washed 3 times in Chloride Free Dye Solution. Chloride transport was initiated by addition of Chloride Free Dye Stimulation Solution and the fluorescence signal was read for 15 minutes. […] Chloride transport was then expressed as a percentage of the chloride transport following treatment with 3 μM N-[(6-amino-2-pyridyl)sulfonyl]-6-(3-fluoro-5-isobutoxy-phenyl)-2-[(4S)-2,2,4-trimethylpyrrolidin-1-yl]pyridine-3-carboxamide, 3 μM (R)-1-(2,2-difluorobenzo[d][1,3]dioxol-5-yl)-N-(1-(2,3-dihydroxypropyl)-6-fluoro-2-(1-hydroxy-2-methylpropan-2-yl)-1H-indol-5-yl)cyclopropanecarboxamide and 300 nM acute N-[2,4-bis(1,1-dimethylethyl)-5-hydroxyphenyl]-1,4-dihydro-4-oxoquinoline-3-carboxamide triple combination control (% Activity).

Chain of CFTR-mediated chloride transport in human intestinal epithelial enteroid cells (P13569 with tags, fused parts or gaps DEL508-508): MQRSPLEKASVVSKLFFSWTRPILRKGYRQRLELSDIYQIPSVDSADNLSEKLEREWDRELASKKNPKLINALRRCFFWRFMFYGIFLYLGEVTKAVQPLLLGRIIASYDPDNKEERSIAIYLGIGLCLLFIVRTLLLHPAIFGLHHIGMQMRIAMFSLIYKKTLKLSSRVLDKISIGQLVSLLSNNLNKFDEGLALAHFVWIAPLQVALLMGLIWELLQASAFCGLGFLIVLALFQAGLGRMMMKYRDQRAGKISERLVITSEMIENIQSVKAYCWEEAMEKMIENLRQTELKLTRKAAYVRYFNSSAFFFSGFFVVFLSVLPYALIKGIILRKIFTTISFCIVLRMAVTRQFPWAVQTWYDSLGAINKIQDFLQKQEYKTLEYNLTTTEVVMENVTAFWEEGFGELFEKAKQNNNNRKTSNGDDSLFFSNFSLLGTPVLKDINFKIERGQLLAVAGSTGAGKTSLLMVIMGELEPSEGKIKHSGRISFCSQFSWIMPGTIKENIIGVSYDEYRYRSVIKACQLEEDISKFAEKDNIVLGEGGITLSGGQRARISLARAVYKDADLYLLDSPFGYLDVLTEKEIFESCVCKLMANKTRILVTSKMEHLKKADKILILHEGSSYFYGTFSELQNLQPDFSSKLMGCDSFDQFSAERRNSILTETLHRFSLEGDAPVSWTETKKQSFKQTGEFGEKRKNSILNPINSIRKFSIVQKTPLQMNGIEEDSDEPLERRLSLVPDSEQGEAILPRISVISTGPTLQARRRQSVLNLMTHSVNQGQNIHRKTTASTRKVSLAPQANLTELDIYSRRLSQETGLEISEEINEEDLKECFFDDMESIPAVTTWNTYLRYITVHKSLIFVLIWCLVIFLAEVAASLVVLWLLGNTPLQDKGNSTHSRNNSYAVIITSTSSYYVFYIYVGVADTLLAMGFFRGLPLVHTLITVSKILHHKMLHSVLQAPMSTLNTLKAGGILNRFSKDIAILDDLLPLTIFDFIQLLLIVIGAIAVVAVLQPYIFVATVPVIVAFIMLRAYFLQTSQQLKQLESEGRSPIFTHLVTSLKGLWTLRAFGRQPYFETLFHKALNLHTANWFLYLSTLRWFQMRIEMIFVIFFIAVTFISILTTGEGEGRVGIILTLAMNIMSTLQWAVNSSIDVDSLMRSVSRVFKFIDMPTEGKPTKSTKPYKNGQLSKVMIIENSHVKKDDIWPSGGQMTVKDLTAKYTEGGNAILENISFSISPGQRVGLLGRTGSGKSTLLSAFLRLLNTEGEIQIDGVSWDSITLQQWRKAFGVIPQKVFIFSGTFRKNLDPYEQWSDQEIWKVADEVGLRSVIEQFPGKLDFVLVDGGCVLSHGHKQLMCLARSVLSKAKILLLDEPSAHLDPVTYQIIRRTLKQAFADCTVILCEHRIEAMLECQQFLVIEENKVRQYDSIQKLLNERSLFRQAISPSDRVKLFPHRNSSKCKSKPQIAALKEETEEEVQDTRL

EC50 [nM]	Structure (SMILES)	Ent. A Max Activity (%)
< 1000	Cc1cccc(C)c1-c1cc2nc(n1)NS(=O)(=O)c1cccc(c1)NC(=O)[C@@H]1C[C@@H](CN(C(=O)OCC(C)(C)C)C1)O2 [Compound 34]	+++ (+++ is >60%)
< 1000	Cc1cccc(C)c1-c1cc2nc(n1)NS(=O)(=O)c1cccc(c1)NC(=O)C1CC(O2)C(C)(C)N(Cc2ccccc2)C1 (single isomer, unassigned) [Compound 73, 5-Benzyl-19-(2,6-dimethylphenyl)-4,4-dimethyl-2-oxa-15λ^6-thia-5,9,16,18,21-pentaazatetracyclo[15.3.1.13,7.110,14]tricosa-1(21),10,12,14(22),17,19-hexaene-8,15,15-trione]	+ (+ is <30%)
3000 to 30000	Cc1cccc(C)c1-c1cc2nc(n1)NS(=O)(=O)c1cccc(c1)NC(=O)[C@@H]1C[C@H](O2)C(=O)N(CCC(C)(C)C)C1 [Compound 90]	++ (++ is 30-60%)
< 1000	Cc1cccc(C)c1-c1cc2nc(n1)NS(=O)(=O)c1cccc(c1)NC(=O)[C@@H]1C[C@@H](CN(CC3C4(CC4)C34CC4)C1)O2 [Compound 6, (3S,7R)-19-(2,6-Dimethylphenyl)-5-({dispiro[2.0.24.13]heptan-7-yl}methyl)-2-oxa-15λ^6-thia-5,9,16,18,21-pentaazatetracyclo[15.3.1.13,7.110,14]tricosa-1(21),10(22),11,13,17,19-hexaene-8,15,15-trione]	+++ (+++ is >60%)
–	Cc1cccc(C)c1-c1cc2nc(n1)NS(=O)(=O)c1cccc(c1)NC(=O)[C@@H]1C[C@H](O2)C(=O)N(CCC(C)(C)C)C1 [Compound 89]	+ (+ is <30%)
3000 to 30000	Cc1cccc(C)c1-c1cc2nc(n1)NS(=O)(=O)c1cccc(c1)NC(=O)[C@@H]1C[C@H](O2)C(=O)N(CCC(C)(C)C)C1 [Compound 88]	++ (++ is 30-60%)
–	Cc1cccc(C)c1-c1cc2nc(n1)NS(=O)(=O)c1cccc(c1)NC(=O)C1CC(O2)C(=O)N(CCC(C)(C)C)C1 (centres unmarked) [Compound 93]	++ (++ is 30-60%)
3000 to 30000	Cc1cccc(C)c1-c1cc2nc(n1)NS(=O)(=O)c1cccc(c1)NC(=O)[C@@H]1C[C@H](O2)C(=O)N(CCC(C)(C)C)C1 [Compound 91]	+ (+ is <30%)
< 1000	Cc1cccc(C)c1-c1cc2nc(n1)NS(=O)(=O)c1cccc(c1)NC(=O)[C@@H]1C[C@@H](CN(C(=O)C3C(C)(C)C3(C)C)C1)O2 [Compound 37]	++ (++ is 30-60%)
< 1000	Cc1cccc(C)c1-c1cc2nc(n1)NS(=O)(=O)c1cccc(c1)NC(=O)[C@@H]1C[C@@H](CN(S(=O)(=O)CC(C)(C)C)C1)O2 [Compound 19]	++ (++ is 30-60%)
3000 to 30000	CCN1C[C@@H]2C[C@H](C1)C(=O)Nc1cccc(c1)S(=O)(=O)Nc1nc(cc(-c3c(C)cccc3C)n1)O2 [Compound 39]	+++ (+++ is >60%)
< 1000	Cc1cccc(C)c1-c1cc2nc(n1)NS(=O)(=O)c1cccc(c1)NC(=O)[C@@H]1C[C@@H](CN(CC3C(C)(C)C3(C)C)C1)O2 [Compound 31]	++ (++ is 30-60%)
< 1000	Cc1cccc(C)c1-c1cc2nc(n1)NS(=O)(=O)c1cccc(c1)NC(=O)[C@@H]1C[C@@H](CN(CC(C)C(F)(F)F)C1)O2 (some centres unmarked) [Compound 29]	+++ (+++ is >60%)
< 1000	CCCCCOC(=O)N1C[C@@H]2C[C@H](C1)C(=O)Nc1cccc(c1)S(=O)(=O)Nc1nc(cc(-c3c(C)cccc3C)n1)O2 [Compound 35]	+++ (+++ is >60%)
1000 to 3000	Cc1cccc(C)c1-c1cc2nc(n1)NS(=O)(=O)c1cccc(c1)NC(=O)C1CN(C(=O)OC(C)(C)C)CCC1O2 (centres unmarked) [Compound 78]	++ (++ is 30-60%)
–	Cc1cccc(C)c1-c1cc2nc(n1)NS(=O)(=O)c1cccc(c1)NC(=O)C1CC(O2)C(=O)N(CCC(C)(C)C)C1 (centres unmarked) [Compound 92]	+ (+ is <30%)
–	Cc1cccc(C)c1-c1cc2nc(n1)NS(=O)(=O)c1cccc(c1)NC(=O)[C@@H]1C[C@@H](CN1C(=O)OC(C)(C)C)O2 [Compound 80]	+ (+ is <30%)
3000 to 30000	Cc1cccc(C)c1-c1cc2nc(n1)NS(=O)(=O)c1cccc(c1)NC(=O)[C@@H]1C[C@@H](CN(CCN(C)C)C1)O2 [Compound 20]	+ (+ is <30%)
< 1000	Cc1cccc(C)c1-c1cc2nc(n1)NS(=O)(=O)c1cccc(n1)NC(=O)C1CC(CN(C(=O)OC(C)(C)C)C1)O2 (centres unmarked) [Compound 13, tert-Butyl 19-(2,6-dimethylphenyl)-8,15,15-trioxo-2-oxa-15λ^6-thia-5,9,16,18,21,22-hexaazatetracyclo[15.3.1.13,7.110,14]tricosa-1(21),10,12,14(22),17,19-hexaene-5-carboxylate]	+++ (+++ is >60%)
< 1000	Cc1cccc(C)c1-c1cc2nc(n1)NS(=O)(=O)c1cccc(c1)NC(=O)[C@@H]1C[C@@H](CN(C(=O)C3(C(F)(F)F)CC3)C1)O2 [Compound 36]	+++ (+++ is >60%)
< 1000	Cc1cccc(C)c1-c1cc2nc(n1)NS(=O)(=O)c1cccc(n1)NC(=O)[C@@H]1C[C@@H](CN(C(=O)OC(C)(C)C)C1)O2 (single isomer, unassigned) [Compound 16, tert-Butyl 19-(2,6-dimethylphenyl)-8,15,15-trioxo-2-oxa-15λ^6-thia-5,9,16,18,21,22-hexaazatetracyclo[15.3.1.13,7.110,14]tricosa-1(21),10,12,14(22),17,19-hexaene-5-carboxylate]	+++ (+++ is >60%)
< 1000	Cc1cccc(C)c1-c1cc2nc(n1)NS(=O)(=O)c1cccc(c1)NC(=O)[C@@H]1C[C@@H](CN(CCC(C)(C)C3CC3)C1)O2 [Compound 26]	+++ (+++ is >60%)
–	Cc1cccc(C)c1-c1cc2nc(n1)NS(=O)(=O)c1cccc(n1)NC(=O)[C@H]1C[C@H](CN(C(=O)OC(C)(C)C)C1)O2 (single isomer, unassigned) [Compound 17, tert-butyl 19-(2,6-dimethylphenyl)-8,15,15-trioxo-2-oxa-15λ^6-thia-5,9,16,18,21,22-hexaazatetracyclo[15.3.1.13,7.110,14]tricosa-1(21),10,12,14(22),17,19-hexaene-5-carboxylate]	+ (+ is <30%)
3000 to 30000	Cc1cccc(C)c1-c1cc2nc(n1)NS(=O)(=O)c1cccc(n1)NC(=O)C1CC(CN(C(=O)OC(C)(C)C)C1)O2 (centres unmarked) [Compound 18]	+++ (+++ is >60%)
1000 to 3000	Cc1cccc(C)c1-c1cc2nc(n1)NS(=O)(=O)c1cccc(c1)NC(=O)[C@@H]1C[C@@H](CN(CCC3CCOCC3)C1)O2 [Compound 38]	++ (++ is 30-60%)

Structure (SMILES)	EC50 [nM]	Ent. A Max Activity (%)
Cc1cccc(C)c1-c1cc2nc(n1)NS(=O)(=O)c1cccc(c1)NC(=O)[C@@H]1C[C@@H](CN(Cc3ccccc3)C1)O2 [Compound 9, (3S,7R)-5-Benzyl-19-(2,6-dimethylphenyl)-2-oxa-15λ^6-thia-5,9,16,18,21-pentaazatetracyclo[15.3.1.13,7.110,14]tricosa-1(20),10,12,14(22),17(21),18-hexaene-8,15,15-trione]	< 1000	+++ (+++ is >60%)
